Experimental data reported in patent US20240124460A1, “METHODS AND COMPOSITIONS FOR TARGETED PROTEIN DEGRADATION” (Ranok Therapeutics (Hangzhou) Co. Ltd., priority 2020, published 2024).
Like-named read-outs stand apart in the source and are kept apart here.

What was measured:
[1] = test system: MV-4-11 human acute myeloid leukemia; assay: MV-4-11 CCK-8 proliferation assay; format: cell-based; details: Homo sapiens, MV4-11; MV-4-11 cells, 72 hr
Experimental: (§1) The following cancer cell lines were employed: A549 human lung carcinoma (ATCC, #CCL-185); BT-474 human breast carcinoma (ATCC, #HTB-20); MDA-MB-231 human breast adenocarcinoma (ATCC, #CRM−HTB-26); MDA-MB-468 human breast adenocarcinoma (ATCC, #HTB-132); MV-4-11 human acute myeloid leukemia (ATCC, #CRL-9591); and U-87 MG human glioblastoma (ATCC, #HTB-14). Cell lines were cultured essentially according to ATCC recommendations.
(§2) 3-fold serial dilutions of each test compound were prepared ranging from 20 μM to 1.02 nM.
(§3) % Inhibition=100−(D−B)/(S−B)*100%. • S: Absorbance of cells treated with DMSO • D: Absorbance of compound-treated cells • B: Absorbance of medium with DMSO without cells

[2] = test system: U-87 MG human glioblastoma; assay: U87 MG CCK-8 proliferation assay; format: cell-based; details: Homo sapiens, U-87 MG cells, read-out: U87MG CCK-8
Experimental: as §1, §2, §3

| Structure (SMILES) | EC50 [1] [nM] | EC50 ([2]; U-87 MG, 72 h) [nM] | EC50 ([2]; 72 hr) [nM] |
| --- | --- | --- | --- |
| CCOc1cc(N2CCC(C(=O)NCc3ccc(CN(C)Cc4ccc(-n5c(O)nnc5-c5cc(C(C)C)c(O)cc5O)cc4)cc3)CC2)ccc1Nc1ncc2c(n1)N(S(C)(=O)=O)c1ccccc1C(=O)N2C [Compound 170, N-(4-(((4-(3-(2,4-dihydroxy-5-isopropylphenyl)-5-hydroxy-4H-1,2,4-triazol-4-yl)benzyl)(methyl)amino)methyl)benzyl)-1-(3-ethoxy-4-((5-methyl-11-(methylsulfonyl)-6-oxo-6,11-dihydro-5H-benzo[e]pyrimido[5,4-b][1,4]diazepin-2-yl)amino)phenyl)piperidine-4-carboxamide] | < 100 | < 100 |  |
| CCNC(=O)c1nnc(-c2cc(CC)c(O)cc2OC)n1-c1ccc(CN2CCN(CC3CCN(C(=O)C4CCN(c5ccc(Nc6ncc7c(n6)N(S(C)(=O)=O)c6ccccc6C(=O)N7C)c(OCC)c5)CC4)CC3)CC2)cc1 [Compound 171, 4-(4-((4-((1-(1-(3-ethoxy-4-((5-methyl-11-(methylsulfonyl)-6-oxo-6,11-dihydro-5H-benzo[e]pyrimido[5,4-b][1,4]diazepin-2-yl)amino)phenyl)piperidine-4-carbonyl)piperidin-4-yl)methyl)piperazin-1-yl)methyl)phenyl)-N-ethyl-5-(5-ethyl-4-hydroxy-2-methoxyphenyl)-4H-1,2,4-triazole-3-carboxamide] | > 1000 | > 1000 |  |
| CCOc1cc(N2CCC(CN3CCC(CN4CCN(Cc5ccc(-n6c(C(=O)NC(C)C(F)(F)F)nnc6-c6cc(CC)c(O)cc6O)cc5)CC4)CC3)CC2)ccc1Nc1ncc2c(n1)N(S(C)(=O)=O)c1ccccc1C(=O)N2C (centres unmarked) [Compound 179, 4-(4-((4-((1-((1-(3-ethoxy-4-((5-methyl-11-(methylsulfonyl)-6-oxo-6,11-dihydro-5H-benzo[e]pyrimido[5,4-b][1,4]diazepin-2-yl)amino)phenyl)piperidin-4-yl)methyl)piperidin-4-yl)methyl)piperazin-1-yl)methyl)phenyl)-5-(5-ethyl-2,4-dihydroxyphenyl)-N-(1,1,1-trifluoropropan-2-yl)-4H-1,2,4-triazole-3-carboxamide 2,2,2-trifluoroacetate] | < 100 | < 100 |  |
| CCOc1cc(N2CCC(C(=O)N3CCN(Cc4ccc(-n5c(O)nnc5-c5cc(C(C)C)c(OP(=O)(O)O)cc5O)cc4)CC3)CC2)ccc1Nc1ncc2c(n1)N(C)c1ccccc1C(=O)N2C [Compound 180, 4-(4-(4-((4-(1-(4-((5,11-dimethyl-6-oxo-6,11-dihydro-5H-benzo[e]pyrimido[5,4-b][1,4]diazepin-2-yl)amino)-3-ethoxyphenyl)piperidine-4-carbonyl)piperazin-1-yl)methyl)phenyl)-5-hydroxy-4H-1,2,4-triazol-3-yl)-5-hydroxy-2-isopropylphenyl dihydrogen phosphate] | < 100 |  | < 100 |
| CCOc1cc(N2CCC(CN3CCC(CN4CCN(Cc5ccc(-n6c(C(=O)NC(C)C(F)(F)F)nnc6-c6cc(C(C)C)c(O)cc6O)cc5)CC4)CC3)CC2)ccc1Nc1ncc2c(n1)N(S(C)(=O)=O)c1ccccc1C(=O)N2C (centres unmarked) [Compound 181, 5-(2,4-dihydroxy-5-isopropylphenyl)-4-(4-((4-((1-((1-(3-ethoxy-4-((5-methyl-11-(methylsulfonyl)-6-oxo-6,11-dihydro-5H-benzo[e]pyrimido[5,4-b][1,4]diazepin-2-yl)amino)phenyl)piperidin-4-yl)methyl)piperidin-4-yl)methyl)piperazin-1-yl)methyl)phenyl)-N-(1,1,1-trifluoropropan-2-yl)-4H-1,2,4-triazole-3-carboxamide] | < 100 | 100 to 1000 |  |
| CCOc1cc(N2CCC(CN3CC4(CCN(Cc5ccc(-n6c(O)nnc6-c6cc(C(C)C)c(O)cc6O)cc5)CC4)C3)CC2)ccc1Nc1ncc2c(n1)N(S(C)(=O)=O)c1ccccc1C(=O)N2C [Compound 183, 2-((4-(4-((7-(4-(3-(2,4-dihydroxy-5-isopropylphenyl)-5-hydroxy-4H-1,2,4-triazol-4-yl)benzyl)-2,7-diazaspiro[3.5]nonan-2-yl)methyl)piperidin-1-yl)-2-ethoxyphenyl)amino)-5-methyl-11-(methylsulfonyl)-5,11-dihydro-6H-benzo[e]pyrimido[5,4-b][1,4]diazepin-6-one] | < 100 | 100 to 1000 |  |
| CCOc1cc(N2CCC(CN3CCC4(CC3)CN(Cc3ccc(-n5c(O)nnc5-c5cc(C(C)C)c(O)cc5O)cc3)C4)CC2)ccc1Nc1ncc2c(n1)N(S(C)(=O)=O)c1ccccc1C(=O)N2C [Compound 184, 2-((4-(4-((2-(4-(3-(2,4-dihydroxy-5-isopropylphenyl)-5-hydroxy-4H-1,2,4-triazol-4-yl)benzyl)-2,7-diazaspiro[3.5]nonan-7-yl)methyl)piperidin-1-yl)-2-ethoxyphenyl)amino)-5-methyl-11-(methylsulfonyl)-5,11-dihydro-6H-benzo[e]pyrimido[5,4-b][1,4]diazepin-6-one] | < 100 | 100 to 1000 |  |

More lines, main results first:

| EC50 [1] [nM] | EC50 ([2]; U-87 MG, 72 h) [nM] | Structure (SMILES) | EC50 ([2]; 72 hr) [nM] |
| --- | --- | --- | --- |
| < 100 | < 100 | CCOc1cc(N2CCC(C(=O)N3CCN(Cc4ccc(-n5c(C(=O)NCCN6CCN(C)CC6)nnc5-c5cc(C(C)C)c(O)cc5O)cc4)CC3)CC2)ccc1Nc1ncc2c(n1)N(C)c1ccccc1C(=O)N2C [Compound 167, 5-(2,4-dihydroxy-5-isopropylphenyl)-4-(4-((4-(1-(4-((5,11-dimethyl-6-oxo-6,11-dihydro-5H-benzo[e]pyrimido[5,4-b][1,4]diazepin-2-yl)amino)-3-ethoxyphenyl)piperidine-4-carbonyl)piperazin-1-yl)methyl)phenyl)-N-(2-(4-methylpiperazin-1-yl)ethyl)-4H-1,2,4-triazole-3-carboxamide] |  |
| < 100 | < 100 | CCOc1cc(N2CCC(C(=O)N3CCN(Cc4ccc(-n5c(C(=O)NCCN6CCN(S(C)(=O)=O)CC6)nnc5-c5cc(C(C)C)c(O)cc5O)cc4)CC3)CC2)ccc1Nc1ncc2c(n1)N(C)c1ccccc1C(=O)N2C [Compound 172, 5-(2,4-dihydroxy-5-isopropylphenyl)-4-(4-((4-(1-(4-((5,11-dimethyl-6-oxo-6,11-dihydro-5H-benzo[e]pyrimido[5,4-b][1,4]diazepin-2-yl)amino)-3-ethoxyphenyl)piperidine-4-carbonyl)piperazin-1-yl)methyl)phenyl)-N-(2-(4-(methylsulfonyl)piperazin-1-yl)ethyl)-4H-1,2,4-triazole-3-carboxamide] |  |
| < 100 | < 100 | CCOc1cc(N2CCC(C(=O)N3CCN(Cc4ccc(-n5c(C(=O)NCC(F)(F)C(F)(F)F)nnc5-c5cc(C(C)C)c(O)cc5O)cc4)CC3)CC2)ccc1Nc1ncc2c(n1)N(C)c1ccccc1C(=O)N2C [Compound 173, 5-(2,4-dihydroxy-5-isopropylphenyl)-4-(4-((4-(1-(4-((5,11-dimethyl-6-oxo-6,11-dihydro-5H-benzo[e]pyrimido[5,4-b][1,4]diazepin-2-yl)amino)-3-ethoxyphenyl)piperidine-4-carbonyl)piperazin-1-yl)methyl)phenyl)-N-(2,2,3,3,3-pentafluoropropyl)-4H-1,2,4-triazole-3-carboxamide] |  |
| < 100 | < 100 | CCOc1cc(N2CCC(C(=O)N3CCN(Cc4ccc(-n5c(C(=O)NCCN6CCN(S(C)(=O)=O)CC6)nnc5-c5cc(C(C)C)c(O)cc5O)cc4)CC3)CC2)ccc1Nc1ncc2c(n1)N(S(C)(=O)=O)c1ccccc1C(=O)N2C [Compound 174, 5-(2,4-dihydroxy-5-isopropylphenyl)-4-(4-((4-(1-(3-ethoxy-4-((5-methyl-11-(methylsulfonyl)-6-oxo-6,11-dihydro-5H-benzo[e]pyrimido[5,4-b][1,4]diazepin-2-yl)amino)phenyl)piperidine-4-carbonyl)piperazin-1-yl)methyl)phenyl)-N-(2-(4-(methylsulfonyl)piperazin-1-yl)ethyl)-4H-1,2,4-triazole-3-carboxamide] |  |
| < 100 | < 100 | CCOc1cc(N2CCC(C(=O)N3CCN(Cc4ccc(-n5c(C(=O)NCC(F)(F)C(F)(F)F)nnc5-c5cc(C(C)C)c(O)cc5O)cc4)CC3)CC2)ccc1Nc1ncc2c(n1)N(S(C)(=O)=O)c1ccccc1C(=O)N2C [Compound 175, 5-(2,4-dihydroxy-5-isopropylphenyl)-4-(4-((4-(1-(3-ethoxy-4-((5-methyl-11-(methylsulfonyl)-6-oxo-6,11-dihydro-5H-benzo[e]pyrimido[5,4-b][1,4]diazepin-2-yl)amino)phenyl)piperidine-4-carbonyl)piperazin-1-yl)methyl)phenyl)-N-(2,2,3,3,3-pentafluoropropyl)-4H-1,2,4-triazole-3-carboxamide] |  |
| < 100 | < 100 | CCOc1cc(N2CCC(CN3CCN(Cc4ccc(-n5c(C(=O)NCC(F)(F)F)nnc5-c5cc(C(C)C)c(O)cc5O)cc4)CC3)CC2)ccc1Nc1ncc2c(n1)N(S(C)(=O)=O)c1ccccc1C(=O)N2C [Compound 178, 5-(2,4-dihydroxy-5-isopropylphenyl)-4-(4-((4-((1-(3-ethoxy-4-((5-methyl-11-(methylsulfonyl)-6-oxo-6,11-dihydro-5H-benzo[e]pyrimido[5,4-b][1,4]diazepin-2-yl)amino)phenyl)piperidin-4-yl)methyl)piperazin-1-yl)methyl)phenyl)-N-(2,2,2-trifluoroethyl)-4H-1,2,4-triazole-3-carboxamide] |  |
